“Also recorded” adds a separate entry of the source. Where a name gives a salt, the structure may show the parent alone.
How the values were obtained:
[1] = Disproportionation study, slurry in pH 6.5 buffer, XRPD; type: physicochemical; conditions: for disproportionation of the salt to the free base in buffer: suspension/slurry in pH 6.5 buffer, XRPD, p-toluenesulfonate
Experimental: The characteristics of the salts in liquids were investigated by slurrying the material in a range of solvents including a buffer of pH 6.5 to simulate physiological conditions.
Compound 1 tosylate salt was slurried in pH 6.5 buffer at room temperature at a concentration of 100 mg in 2 mL. Samples were taken at 15 minute intervals up to 120 minutes.
In order to prepare the pH 6.5 slurry of Compound 1 tosylate salt, a buffer was first prepared by producing a first solution (Solution A) by adding 90.8 mg of potassium dihydrogen phosphate to a conical 100 mL flask. Deionised water was added to mark ensuring all solid had dissolved. A second solution (Solution B) was prepared by adding 118.8 mg of disodium hydrogen phosphate to a conical 100 mL flask and deionised water was added to mark ensuring all solid had dissolved. Then 64 mL of solution A was mixed with 32 mL of solution B to form a pH 6.5 buffer
The slurry was prepared by adding 100 mg of Compound 1 tosylate to a 10 mL vial and to this was added 2 mL of the pH 6.5 buffer (prepared above), a magnetic stir bar was added and vial placed on a magnetic stirrer. Small aliquots of the suspension were removed after 15 minutes, 30 minutes, 45 minutes, 60 minutes and 120 minutes and each sample was placed on a metal plate on the D8 Diffractometer and an XRPD pattern determined immediately. The results after 0, 15 and 60 minutes are shown in FIGS. 7, 8 and 9, respectively.

[2] = Particle size reduction (milling, micronisation), PXRD; type: physicochemical; conditions: pestle and mortar 10 minutes or spiral jet mill, listed as tosylate salt, p-toluenesulfonate
Experimental: In order to investigate the potential for the materials to become amorphous during particle size reduction procedures, batches of the material were milled either by grinding the material in a pestle and mortar for 10 minutes or by micronising using conventional micronising equipment, in this case, a 2″ Spiral jet mill manufactured by Gravesend engineering. The products were subjected to PXRD as described in Example 4 above.

[3] = Intrinsic and powder dissolution rate (pH 6.5); type: physicochemical
Experimental: In order to investigate the effects of salts on the release rate, an intrinsic dissolution (pH 6.5) was performed.

[4] = Solid state storage stability (disproportionation); type: physicochemical; conditions: 3 months storage at 40° C. and 5% relative humidity
[5] = Solubility in various media (amount dissolved after stirring with excess solid); type: physicochemical
Experimental: Due to the observation of the tosylate salt remaining as the salt form in solution, further investigations were performed to probe the solubility of the salts in various media. The amounts dissolved (mg/mL) in the various media after stirring either the Compound 1 free base or the Compound 1 tosylate salt with excess solid for 10 minutes and 60 minutes are shown in Table 4 (SIF=Simulated intestinal fluid; FaSIF=Fasted Simulated Intestinal Fluid).

[6] = Dog study, plasma levels of Compound 1 after oral tablets; type: in vivo, Alderley Park Beagle Dogs; conditions: fasted dogs, 50 mg or 150 mg fbe
Experimental: A dog study was performed to measure plasma levels of Compound 1 in fasted dogs following oral administration of 50 mg free base equivalent (fbe) doses in tablets of the free base and the tosylate salt (form 2 of the 1:1 stoichiometric salt), and 150 mg fbe as 3×50 mg tablets of the tosylate salt.
Tablets of Compound 1 were manufactured using a standard direct compression process. Three batches were made containing Compound 1 free base or Compound 1 tosylate as the active pharmaceutical ingredient (API). The generic formulation contained API (12.5% w/w), fast flo lactose (72.0% w/w), Avicel PH102 (10.0% w/w), AcDiSol (4.0% w/w), sodium lauryl sulfate (0.5% w/w) and magnesium stearate (1.0% w/w). The required quantity of each formulation component, excluding magnesium stearate, was weighed and charged to a mixing vessel. The powders were then mixed for 30 minutes using a tumble blender. The powder mix was then sieved through a 425 μm sieve before being mixed for a further 15 minutes using the tumble blender. […] The required quantity of powder mix for each tablet was weighed individually and charged to the die before being compressed manually using a hand-operated press. […]
Dogs were fed about 400 g of Harlan Teklad 2021 each day and allowed water ad libitum. […] Plasma (50 mcL) was analysed for Compound 1 concentration.

[7] = Percent dissolution after 1 hour, tablet and powder form; type: physicochemical
Experimental: Dissolution of the free base of Compound 1 as well as the tosylate salt of Compound 1 was investigated at the 1 hour time point in both tablet form and powder form. The dissolution rate of the tosylate salt was generally much higher than that of the free base.

[8] = test system: constitutively active MEK1 (2-393); experiment: MEK1 kinase assay (33P incorporation onto ERK2); type: biochemical
Experimental: N-terminal 6 His-tagged, constitutively active MEK1 (2-393) is expressed in E. coli and protein is purified by conventional methods (Ahn et al., Science 1994, 265, 966-970). The activity of MEK1 is assessed by measuring the incorporation of γ-^33P-phosphate from γ-^33P-ATP onto N-terminal His tagged ERK2, which is expressed in E. coli and is purified by conventional methods, in the presence of MEK1. The assay is carried out in 96-well polypropylene plate. The incubation mixture (100 μL) comprises of 25 mM Hepes, pH 7.4, 10 mM MgCl2, 5 mM β-glycerolphosphate, 100 μM sodium orthovanadate, 5 mM DTT, 5 nM MEK1, and 1 μM ERK2. Inhibitors are suspended in DMSO, and all reactions, including controls are performed at a final concentration of 1% DMSO. Reactions are initiated by the addition of 10 μM ATP (with 0.5 μCi γ-^33P-ATP/well) and incubated at ambient temperature for 45 minutes. Equal volume of 25% TCA is added to stop the reaction and precipitate the proteins. Precipitated proteins are trapped onto glass fiber B filterplates, and excess labeled ATP washed off using a Tomtec MACH III harvestor. Plates are allowed to air-dry prior to adding 30 μL/well of Packard Microscint 20, and plates are counted using a Packard TopCount.

[9] = Relative stability of polymorphs; type: physicochemical; conditions: 1:1 anhydrous salt

**Q.** For `Cn1cnc2c(F)c(Nc3ccc(Br)cc3Cl)c(C(=O)NOCCO)cc21` [Compound 1 tosylate, 6-(4-bromo-2-chloro-phenylamino)-7-fluoro-3-methyl-3H-benzoimidazole-5-carboxylic acid (2-hydroxy-ethoxy)-amide p-toluenesulfonate], which “time the salt remains present in the slurry” value ([1]; pH 6.5 buffer, room temperature, 100 mg in 2 mL) is on record?
**A.** Its value is “up to 75 minutes”.

**Q.** What about the “disproportionation of the salt to the free base in buffer” value ([1]; listed as Compound 1 tosylate salt) of the same molecule?
**A.** The value was “a small amount of free base is produced after 15 minutes”.

**Q.** And the “disproportionation of the salt to the free base in buffer” value [1]?
**A.** Its value is “little disproportionation”.

**Q.** And the “resistance to becoming amorphous on milling and micronisation” value [2]?
**A.** Its value is “highly resistant to becoming amorphous; also recorded: unique resistance to becoming amorphous”.

**Q.** What about the “intrinsic dissolution rate relative to the free base” value [3] of the same molecule?
**A.** Its value is “comparable to that of the free base”.

**Q.** What about the “powder dissolution rate relative to the free base” value [3] of the same molecule?
**A.** The value was 60 times.

**Q.** And the “disproportionation in the solid state” value [4]?
**A.** The value was “no disproportionation”.

**Q.** What about the amount dissolved ([5]; FaSSIF, 10 min, p-toluenesulfonate) of the same molecule?
**A.** The amount dissolved was 0.19 mg/mL.

**Q.** What about the amount dissolved ([5]; FaSSIF, 60 min, p-toluenesulfonate) of the same molecule?
**A.** Its amount dissolved is 0.04 mg/mL.

**Q.** And the amount dissolved ([5]; H2O, 10 min, p-toluenesulfonate)?
**A.** Its amount dissolved is 0.058 mg/mL.

**Q.** What about the amount dissolved ([5]; SIF pH 6.5, 10 min, p-toluenesulfonate) of the same molecule?
**A.** The amount dissolved was 0.041 mg/mL.

**Q.** What about the amount dissolved ([5]; SIF pH 6.5, 60 min, p-toluenesulfonate) of the same molecule?
**A.** Its amount dissolved is 0.020 mg/mL.

**Q.** What about the amount dissolved ([5]; Sorenson's buffer, 10 min, p-toluenesulfonate) of the same molecule?
**A.** The amount dissolved was 0.019 mg/mL.

**Q.** What about the amount dissolved ([5]; Sorenson's buffer, 60 min, p-toluenesulfonate) of the same molecule?
**A.** The amount dissolved was 0.007 mg/mL.

**Q.** And the amount dissolved ([5]; pH 1.2, 10 min, p-toluenesulfonate)?
**A.** Its amount dissolved is 0.41 mg/mL.

**Q.** And the amount dissolved ([5]; pH 1.2, 60 min, p-toluenesulfonate)?
**A.** Its amount dissolved is 0.19 mg/mL.

**Q.** What about the “exposure (plasma Compound 1) versus free base” value [6] of the same molecule?
**A.** Its value is “substantial increase in exposure”.

**Q.** And the “percent dissolution after 1 hour” value ([7]; FaSSIF, 50 mg (fbe) tablets, p-toluenesulfonate)?
**A.** Its value is 23.05%.

**Q.** And the “percent dissolution after 1 hour” value ([7]; FaSSIF, powder, p-toluenesulfonate)?
**A.** Its value is 31.48%.

**Q.** And the “percent dissolution after 1 hour” value ([7]; SIF pH 6.5, 50 mg (fbe) tablets, p-toluenesulfonate)?
**A.** The value was 6.66%.

**Q.** What about the “percent dissolution after 1 hour” value ([7]; SIF pH 6.5, powder, p-toluenesulfonate) of the same molecule?
**A.** The value was 5.16%.

**Q.** Which “activity in MEK1 assay” value [8] does the source give for `Cn1cnc2c(F)c(Nc3ccc(Br)cc3Cl)c(C(=O)NOCCO)cc21` [Compound 1, 6-(4-bromo-2-chloro-phenylamino)-7-fluoro-3-methyl-3H-benzoimidazole-5-carboxylic acid (2-hydroxy-ethoxy)-amide] here?
**A.** The value was “activity”.

**Q.** And the amount dissolved ([5]; FaSSIF, 10 min, listed as Compound 1 free base)?
**A.** Its amount dissolved is 0.01 mg/mL.

**Q.** And the amount dissolved ([5]; FaSSIF, 60 min, listed as Compound 1 free base)?
**A.** Its amount dissolved is 0.01 mg/mL.

**Q.** What about the amount dissolved ([5]; H2O, 10 min, listed as Compound 1 free base) of the same molecule?
**A.** The amount dissolved was 0.004 mg/mL.

**Q.** What about the amount dissolved ([5]; SIF pH 6.5, 10 min, listed as Compound 1 free base) of the same molecule?
**A.** Its amount dissolved is 0.004 mg/mL.

**Q.** What about the amount dissolved ([5]; SIF pH 6.5, 60 min, listed as Compound 1 free base) of the same molecule?
**A.** Its amount dissolved is 0.004 mg/mL.

**Q.** And the amount dissolved ([5]; Sorenson's buffer, 10 min, listed as Compound 1 free base)?
**A.** The amount dissolved was 0.004 mg/mL.

**Q.** And the amount dissolved ([5]; Sorenson's buffer, 60 min, listed as Compound 1 free base)?
**A.** Its amount dissolved is 0.004 mg/mL.

**Q.** And the amount dissolved ([5]; pH 1.2, 10 min, listed as Compound 1 free base)?
**A.** Its amount dissolved is 0.14 mg/mL.

**Q.** And the amount dissolved ([5]; pH 1.2, 60 min, listed as Compound 1 free base)?
**A.** The amount dissolved was 0.13 mg/mL.

**Q.** And the “percent dissolution after 1 hour” value ([7]; FaSSIF, 50 mg (fbe) tablets, listed as Compound 1 Free base)?
**A.** The value was 4.54%.

**Q.** And the “percent dissolution after 1 hour” value ([7]; FaSSIF, powder, listed as Compound 1 Free base)?
**A.** The value was 4.49%.

**Q.** And the “percent dissolution after 1 hour” value ([7]; SIF pH 6.5, 50 mg (fbe) tablets, listed as Compound 1 Free base)?
**A.** Its value is 2.61%.

**Q.** And the “percent dissolution after 1 hour” value ([7]; SIF pH 6.5, powder, listed as Compound 1 Free base)?
**A.** Its value is 2.36%.

**Q.** Which results are given for `Cn1cnc2c(F)c(Nc3ccc(Br)cc3Cl)c(C(=O)NOCCO)cc21` [Form 2, 6-(4-bromo-2-chloro-phenylamino)-7-fluoro-3-methyl-3H-benzoimidazole-5-carboxylic acid (2-hydroxy-ethoxy)-amide p-toluenesulfonate]?
**A.** disproportionation of the salt to the free base in buffer [1]: some kinetic resistance to disproportionate; stability relative to the other polymorph [9]: more stable than the salt in the form of the polymorph Form 1

Source: US20090030058A1, “TOSYLATE SALT OF 6- (4-BR0M0-2-CHL0R0PHENYLAMIN0) -7-FLUORO-N- (2-HYDROXYETHOXY) -3-METHYL-3H-BENZIMI DAZOLE- 5 - CARBOXAMIDE , MEK INHIBITOR USEFUL IN THE TREATMENT OF CANCER” (priority 2005, published 2009)
